In US9193983B2, “Assays for mutagenesis detection” (The Regents of the University of California, priority 2007, dated 2015):
Like-named read-outs stand apart in the source and are kept apart here. Numbered stars: 1 amine (or outer) side, 2 acyl side, 3 side chain; on linkers, the order of the positions; unused ones are H or OH. Bridge positions count the residues as written; N and C are the ends. Square brackets hold non-standard residues; d marks the D form. Peptide text beside a SMILES is read from it. I, II: the chains in the order shown. Actinocin(9to1) = Cc1c2oc3c(C)ccc(C(=O)[*:1])c3nc-2c(C(=O)[*:2])c(N)c1=O; NMeV = CN[C@H](C(=O)O)C(C)C; Sar = CNCC(=O)O

Experiments:
[1] = test system: S. cerevisiae strain RS112; assay: well-based DEL assay (MTS colorimetric, 96/384-well): genotoxicity and cytotoxicity; conditions: for DNA deletion potential (DEL events) of solvent alone: compared to control treated yeast
Text: (§1) The RS112 yeast DEL assay tester strain of Saccharomyces cerevisiae contains a plasmid with an internal fragment of the HIS3 gene integrated at the genomic HIS3 locus, yielding an integrative disruption of the HIS3 gene. This disruption results in two copies of the HIS3 gene, each copy having one terminal deletion. Recombination between the two his3 deletion alleles results in reversion to HIS3^+ and growth in the absence of histidine. This recombination event leads to a 6 kb DNA deletion comprising the integrated plasmid leading to deletion (DEL) events. The assay utilizing DEL events involves overnight growth of a single colony of the RS112 strain and subsequent subculture with the presence or absence of the chemical being tested for 17 hours at 30° C. under constant shaking. Yeast are then plated onto SC medium to determine the number of survivors (individual colonies are counted) and onto SC-HIS medium to score for DEL events. The traditional DEL assay is very powerful if one is testing a limited number of chemicals but becomes impractical for screening large numbers of chemicals and chemical libraries.
(§2) For 384-well plate format, 1 μl of yeast (˜100,000 cells) was pipetted into 8 microplate wells for each compound, four of which containing 70 μl SC media and four containing 70 μl SC-HIS media; each well was supplemented with 14 μl of MTS and 5 μl of compound. For 96-well plate format, the above was consistent except media, MTS, and compound volumes were 100 μl, 20 μl, and 7 μl, respectively. Control wells were treated with water in lieu of compound. The outermost columns of the 96-well plate and outer two columns of each 384-well plate were excluded from experimentation lest edge evaporative effects alter the data. Plates were incubated at 30° C. at normal atmosphere during which yeast were grown in the presence of the tested compound and 490 nm absorbance was measured 10-18 hr later using a Molecular Devices SpectraMax M5 microplate reader (Sunnyvale, Calif.).
(§3) Survival for a given compound treatment was quantified by averaging the absorbance across the four treated wells in SC media and dividing that by the average absorbance of control wells. DEL induction was quantified by dividing the absorbance of each SC-HIS well by the corresponding paired SC well. Thus for each compound done in quadruplicate, each plate contains a set of 4 different measurements of DEL induction. For each compound, ratio of the average DEL induction in treated versus control cultures was taken as the fold-increase in DEL events (HIS^+ growth). A Student's t-test was performed on the 4 measurements of DEL induction and the same measurements recorded from control wells to determine significance of the fold-increase. It should be noted that this value of fold-increase is analyzed statistically for significance and not absolute; thus two different chemicals may have the same fold-increase but varying levels of significance. In plots and tables, data from a single experiment performed in quadruplicate is presented; all experiments were repeated independently in at least 3 separate experiments in both 96 and 384-well plate formats.

[2] = as above; conditions: Saccharomyces cerevisiae; for viability: Cytotoxicity (% survival)
Text: as §1, §2, §3

[3] = S. cerevisiae strain RS112 (diploid yeast cells)
[4] = concentrations as low as 1 μM (~0.3 μg/ml)

SMILES: CC[C@@]1(O)C(=O)OCc2c1cc1n(c2=O)Cc2cc3ccccc3nc2-1 [Camptothecin, camptothecin]
- Cytotoxicity significance ([1]; 5 μM final in well): *** (*** (p < 0.005))
- DEL (fold increase) ([1]; 5 μM final in well): 1.28 fold
- DEL significance ([1]; 5 μM final in well): ** (** (p < 0.01))
- Cytotoxicity significance ([1]; 15 μM final in well): * (* (p < 0.05))
- DEL (fold increase) ([1]; 15 μM final in well): 1.53 fold
- DEL significance ([1]; 15 μM final in well): *** (*** (p < 0.005))
- Cytotoxicity significance ([1]; 25 μM final in well): * (* (p < 0.05))
- DEL (fold increase) ([1]; 25 μM final in well): 1.57 fold
- DEL significance ([1]; 25 μM final in well): *** (*** (p < 0.005))
- Cytotoxicity significance ([1]; 40 μM final in well): *** (*** (p < 0.005))
- DEL (fold increase) ([1]; 40 μM final in well): 1.77 fold
- DEL significance ([1]; 40 μM final in well): *** (*** (p < 0.005))
- cytotoxicity ([1]; each concentration 5-40 μM): various degrees of cytotoxicity
- genotoxicity (growth in −HIS media) ([1]; each concentration 5-40 μM (1.7-13.9 μg/ml)): significant genotoxicity
- viability at 5 μM [2, 3]: 86.1%
- viability at 15 μM [2, 3]: 93.1%
- viability at 25 μM [2, 3]: 95.7%
- viability at 40 μM [2, 3]: 85.6%

SMILES: O=C(O)CCCc1ccc(N(CCCl)CCCl)cc1 [Chlorambucil, chlorambucil]
- Cytotoxicity significance ([1]; 1 μM final in well): ** (** (p < 0.01))
- DEL (fold increase) ([1]; 1 μM final in well): 1.18 fold
- DEL significance ([1]; 1 μM final in well): * (* (p < 0.05))
- Cytotoxicity significance ([1]; 10 μM final in well): *** (*** (p < 0.005))
- DEL (fold increase) ([1]; 10 μM final in well): 2.37 fold
- DEL significance ([1]; 10 μM final in well): *** (*** (p < 0.005))
- Cytotoxicity significance ([1]; 30 μM final in well): *** (*** (p < 0.005))
- DEL (fold increase) ([1]; 30 μM final in well): 3.58 fold
- DEL significance ([1]; 30 μM final in well): *** (*** (p < 0.005))
- cytotoxicity [1, 4]: significant genotoxicity and cytotoxicity
- genotoxicity [1, 4]: significant genotoxicity and cytotoxicity
- DEL events (DNA deletions) induced by crosslinking agents ([1]; well-based DEL assay): significant increase in DEL events
- viability at 1 μM [2]: 82.4%
- viability at 10 μM [2]: 35.7%
- viability at 30 μM [2]: 20.5%

SMILES: O=[N+]([O-])c1cc[n+]([O-])c2ccccc12 [4NQO, 4-nitroquinoline-1-oxide]
- viability ([2]; 0.08 μg/ml final in well): 20.3%
- viability ([2]; 0.2 μg/ml final in well): 11.7%
- viability ([2]; 1 μg/ml final in well): 13.5%

SMILES: O=P1(N(CCCl)CCCl)NCCCO1 (centres unmarked) [Cyclophosphamide, cyclophosphamide monohydrate]
- DEL (fold increase) ([1]; 50 μM final in well): 0.77 fold
- DEL significance ([1]; 50 μM final in well): ns (ns—not significant (p > 0.05))
- DEL (fold increase) ([1]; 100 μM final in well): 0.74 fold
- DEL significance ([1]; 100 μM final in well): ns (ns—not significant (p > 0.05))
- Cytotoxicity significance ([1]; 200 μM final in well): ns (ns—not significant (p > 0.05))
- DEL (fold increase) ([1]; 200 μM final in well): 0.95 fold
- DEL significance ([1]; 200 μM final in well): ns (ns—not significant (p > 0.05))
- DEL fold-increase ([1]; up to 200 μM): no DEL fold-increase
- viability at 50 μM [2]: 109%
- viability at 100 μM [2]: 104%
- viability at 200 μM [2]: 96.2%

SMILES: CC(C)=O [Acetone, acetone]
- DEL (fold increase) ([1]; 0.4% (solvent tested alone)): 0.96 fold
- DEL significance ([1]; 0.4% (solvent tested alone)): ns (ns—not significant (p > 0.05))
- DNA deletion potential (DEL events) of solvent alone [1]: neither solvents generated any differentiable response

SMILES: Cc1c2oc3c(C)ccc(C(=O)N[C@@H]4C(=O)N[C@H](C(C)C)C(=O)N5CCC[C@H]5C(=O)N(C)CC(=O)N(C)[C@@H](C(C)C)C(=O)O[C@@H]4C)c3nc-2c(C(=O)N[C@@H]2C(=O)N[C@H](C(C)C)C(=O)N3CCC[C@H]3C(=O)N(C)CC(=O)N(C)[C@@H](C(C)C)C(=O)O[C@@H]2C)c(N)c1=O [ActD, actinomycin D] (I: T[dV]P[Sar][NMeV] / II: T[dV]P[Sar][NMeV]; ester I:1-I:C, II:1-II:C; linker I:N-II:N via Actinocin(9to1))
- Cytotoxicity significance [1]: ** (key: * (p < 0.05); ** (p < 0.01); *** (p < 0.005); ns—not significant (p > 0.05))
- DEL fold-increase [1]: significant DEL fold-increase
- cytotoxicity [1]: slight cytotoxicity
- Cytotoxicity (% survival) ([1]; 5 μM final in well): 112.0%
- DEL (fold increase) ([1]; 5 μM final in well): 0.89 fold
- DEL significance ([1]; 5 μM final in well): ns (ns—not significant (p > 0.05))
- Cytotoxicity (% survival) ([1]; 10 μM final in well): 110.2%
- DEL (fold increase) ([1]; 10 μM final in well): 0.96 fold
- DEL significance ([1]; 10 μM final in well): ns (ns—not significant (p > 0.05))
- Cytotoxicity (% survival) ([1]; 20 μM final in well): 86.3%
- DEL (fold increase) ([1]; 20 μM final in well): 1.26 fold
- DEL significance ([1]; 20 μM final in well): ** (** (p < 0.01))

SMILES: C[S+](C)[O-] [DMSO, dimethyl sulfoxide]
- DEL (fold increase) ([1]; 1% (solvent tested alone)): 0.96 fold
- DEL significance ([1]; 1% (solvent tested alone)): ns (ns—not significant (p > 0.05))
- DNA deletion potential (DEL events) of solvent alone [1]: neither solvents generated any differentiable response
